Here are results for 23 compounds from ChEMBL document CHEMBL5550167, “Emerging trends in small molecule inhibitors targeting aldosterone synthase: A new paradigm in cardiovascular disease treatment” (Eur J Med Chem, 2024).

The first series has as its target T1, CYP11B1 (Homo sapiens, UniProt P15538).
T1 sequence (P15538 whole entry): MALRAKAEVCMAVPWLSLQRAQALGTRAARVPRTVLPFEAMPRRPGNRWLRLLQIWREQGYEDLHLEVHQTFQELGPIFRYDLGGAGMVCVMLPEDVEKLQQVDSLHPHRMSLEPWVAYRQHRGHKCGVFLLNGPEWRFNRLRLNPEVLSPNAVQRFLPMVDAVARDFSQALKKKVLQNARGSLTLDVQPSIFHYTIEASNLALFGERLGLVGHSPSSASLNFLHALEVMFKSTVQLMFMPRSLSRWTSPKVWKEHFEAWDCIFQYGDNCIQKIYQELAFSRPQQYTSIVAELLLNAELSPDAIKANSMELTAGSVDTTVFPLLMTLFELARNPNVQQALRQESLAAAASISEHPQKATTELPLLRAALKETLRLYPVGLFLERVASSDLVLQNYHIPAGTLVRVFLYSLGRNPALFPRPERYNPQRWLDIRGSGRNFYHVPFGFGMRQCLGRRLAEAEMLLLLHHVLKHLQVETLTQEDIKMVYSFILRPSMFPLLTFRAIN
Briefly: (§1) Inhibition of CYP11B1 (unknown origin). It is filed as ADME.
`COc1cc2c(cc1-c1cccnc1)CCC(=O)N2C` had an IC50 of 1100 nM.

As to `Cc1c(F)cncc1C1COc2c(cccc2C(N)=O)O1` (stereo unspecified), the IC50 turned out to be 2600 nM.

For a further series, the target named is T2, Cytochrome P450 11B1, mitochondrial (Homo sapiens, UniProt P15538).
T2 sequence (P15538 whole entry): T1 sequence (P15538 whole entry)
Described as §1. It counts as ADME.
As for `Cc1c(-c2cccnc2)[nH]c2ccccc12`, the IC50 is 81 nM.

In turn, `Cn1c(-c2cccnc2)c(C#N)c2ccc(Cl)cc21` registered an IC50 of 107 nM.

Compound `CC1(c2ccccc2)CCc2cncc(-c3ccc(C(F)(F)F)cc3F)c21` (stereo unspecified) came in with a concentration for half-maximal inhibition (IC50) of 738 nM.

In turn, `O=C(CC1CCc2c(-c3ccc(C(F)(F)F)cc3F)cncc21)N1CCCCC1` (stereo unspecified) had an IC50 of 10 nM.

Tested on in the next series: not listed separately
Briefly: Metabolic stability in human liver microsomes assessed as half life measured upto 60 mins by LC/MS-MS analysis. It counts as ADME, Microsome.
Regarding `Cc1nnc2n1-c1ccc(-c3cncc([C@](C)(O)C(F)(F)F)c3)cc1CC2`, the half-life came out at 120 min.

For another series, the target named is T3, Cytochrome P450 11B2, mitochondrial (Homo sapiens, UniProt P19099).
T3 sequence (P19099 whole entry): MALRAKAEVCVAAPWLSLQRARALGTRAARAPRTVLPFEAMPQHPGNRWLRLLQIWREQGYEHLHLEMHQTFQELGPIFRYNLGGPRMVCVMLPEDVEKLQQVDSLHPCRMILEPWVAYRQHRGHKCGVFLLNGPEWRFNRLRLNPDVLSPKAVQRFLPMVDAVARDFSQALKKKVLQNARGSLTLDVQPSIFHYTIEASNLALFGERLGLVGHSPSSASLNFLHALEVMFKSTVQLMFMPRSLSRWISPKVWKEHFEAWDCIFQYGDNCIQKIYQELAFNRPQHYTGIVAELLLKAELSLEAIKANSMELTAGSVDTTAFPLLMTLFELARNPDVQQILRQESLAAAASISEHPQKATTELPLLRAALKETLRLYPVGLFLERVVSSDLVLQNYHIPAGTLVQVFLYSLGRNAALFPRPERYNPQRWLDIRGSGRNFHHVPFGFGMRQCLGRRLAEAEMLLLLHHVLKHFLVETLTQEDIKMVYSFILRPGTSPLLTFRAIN
Kind of series: Inhibition of human CYP11B2 expressed in human NCI-H295 cells incubated for 48 hrs by radioimmuno assay. It counts as ADME, cell-based.
`COc1ccc2c(c1)CC(C)C(c1cncc3ccccc13)=C2` (stereo unspecified): the midpoint of inhibition, the IC50, lay at 0.5 nM.

For another series, the target named is T3, Cytochrome P450 11B2, mitochondrial. Kind of series: Inhibition of human CYP11B2 stably expressed in G-402 cells. It counts as ADME, cell-based.
With `Cn1cc(C(=O)N2CC(Oc3cncc(N4C(=O)c5ccc(Cl)cc5C4(C)C)c3)C2)cn1`, it took 0.5 nM to reach half-maximal inhibition (IC50).

Compound `Cn1nccc1-c1cncc(N2CCc3cc(Cl)ccc3C2=O)c1Cl` had a concentration for half-maximal inhibition (IC50) of 6.2 nM.

With `CCn1cc(C(=O)N2CC3(C2)CN(c2cncc(N4C(=O)c5ccc(Cl)cc5C4(C)C)c2)C3)cn1`, the IC50 was 0.23 nM.

The next series shares this target. Briefly: Inhibition of CYP11B2 (unknown origin). It counts as ADME.
`Cc1nnc2n1-c1ccc(-c3cncc([C@](C)(O)C(F)(F)F)c3)cc1CC2` gave an IC50 of 64 nM.

For `CC1(c2ccccc2)CCc2cncc(-c3ccc(C(F)(F)F)cc3F)c21` (stereo unspecified), the midpoint of inhibition, the IC50, lay at 33 nM.

For the compound `N#Cc1cccc2c1OCC(c1cncc(C(O)C3CCOCC3)c1)O2` (stereo unspecified), the 50% inhibitory concentration (IC50) was under 10 nM.

In turn, `CC(C)CCC1(c2ccccc2Cl)C(=O)N(Cc2ccc(F)cc2)Cc2cncn21` (stereo unspecified) showed an IC50 of 4 nM.

In turn, `N#Cc1ccc(-c2cncc3c2CCCC3)cc1` came in with an IC50 of 40 nM.

On to `CN(C)C(=O)CC1CCCc2c(-c3ccc(C(F)(F)F)cc3F)cncc21` (stereo unspecified), for which 32 nM corresponded to half-maximal inhibition (IC50).

Compound `N#Cc1cccc2c1OCC(c1cncc(CN3CCOC3=O)c1)O2` (stereo unspecified) had a half-inhibitory concentration (IC50) of under 10 nM.

The compound `N#Cc1cccc2c1OCC(c1cncc(CN3CCCCS3(=O)=O)c1)O2` (stereo unspecified) yielded an IC50 of under 10 nM.

Turning to `CCCC1(c2ccc(C#N)cc2OC)C(=O)N(Cc2ccccc2)Cc2cncn21` (stereo unspecified), the half-maximal inhibitory concentration (IC50) was 4 nM.

The compound `CNC(=O)Cn1cc(NC(=O)CN2CCN(c3cncc(-c4ccc(Cl)cc4)c3)CC2)cn1` gave an IC50 of 3 nM.

Compound `CC1(C)C(=O)Nc2cccc(Cl)c2C1n1cncc1CO` (stereo unspecified) gave a half-maximal inhibitory concentration (IC50) of 7 nM.

`CS(=O)(=O)COc1cncc(C2COc3c(C#N)cccc3O2)c1` (stereo unspecified) had a concentration for half-maximal inhibition (IC50) of under 10 nM.

For `CC1(C)CN(Cc2ccccc2)c2ccccc2C1N1C=NCC1CO` (stereo unspecified), the IC50 came out at 6 nM.

`O=C(CC1CCc2c(-c3ccc(C(F)(F)F)cc3F)cncc21)N1CCCCC1` (stereo unspecified) displayed an IC50 of 2 nM.

Consider `CC(C)NC(=O)CN1CCN(c2cncc(-c3ccc4c(c3)CCO4)n2)C1`, for which half-maximal inhibition (IC50) required 2.2 nM.
